In article PMC5584707, “Pro-Secretory Activity and Pharmacology in Rabbits of an Aminophenyl-1,3,5-Triazine CFTR Activator for Dry Eye Disorders” (Investigative Ophthalmology & Visual Science, 2017):
Values belong to the molecule of their own block, whether it stands above or below them.

Assays:
human wildtype CFTR = settings: cell cultures, cited from earlier work
tear volume in mice = settings: delivered topically; cited from earlier work
[1] = tested on: lacrimal gland ablation models in mice; set-up: method as in PMID 26842854; settings: cited from earlier work
ENaC [2] = assay: Ocular surface potential difference (PD) in vivo, amiloride-sensitive sodium channel; settings: rabbit in vivo, amiloride 100 μM, average
Experimental: (§1) Open-circuit transepithelial potential difference (PD, in mV) at the ocular surface was measured continuously in anesthetized rabbits using a procedure modified from that established in mice.[8] Rabbits were intubated and anesthetized with isoflurane, and respiratory rate, blood pressure, and body temperature were monitored. For PD recording, solutions (see below) were serially perfused at 10 mL/min through PE-90 plastic tubing using a gravity multireservoir pinch-valve system (ALA Scientific, Westbury, NY, USA) and a variable-flow peristaltic pump (medium flow model; Thermo Fisher Scientific, Fair Lawn, NJ, USA). A perfusion catheter was fixed onto an adjustable stereotaxic frame with the tip immersed in solution contacting the ocular surface, as diagrammed in Figure 2A. Excess fluid was aspirated by continuous suction (low-powered wall vacuum) using 1/8-inch tubing (inner diameter 3/32 inch) placed 3 mm from the lateral canthus to maintain near-constant perfusate volume in contact with cornea, bulbar conjunctiva, and palpebral conjunctiva without fluid runoff. The measuring electrode contacted the perfusion catheter and was connected to a high-impedance voltmeter (IsoMilivolt Meter; World Precision Instruments, Sarasota, FL, USA). The reference electrode was grounded using a winged, 25-gauge needle filled with normal saline inserted subcutaneously in the abdomen. […]

ENaC [3] = assay: Short-circuit current in freshly isolated conjunctiva, amiloride; format: biochemical; settings: ex vivo rabbit conjunctiva, 10 μM
Experimental: (§2) Short-circuit current was measured in freshly isolated rabbit conjunctiva, as described[16] with modification. Rabbits were euthanized by injection of 150 mg/kg euthasol into the marginal ear vein. The entire eyeball with eyelids intact was removed from the orbit to preserve conjunctival epithelial integrity. Within 10 minutes, a sheet of forniceal and palpebral conjunctiva was dissected, mounted onto a P2304 tissue slider (Physiologic Instruments, San Diego, CA, USA), and placed into the Ussing chamber. The apical and basolateral chambers contained (in mM): 120 NaCl, 3 KCl, 1 CaCl2, 1 MgCl2, 10 glucose, 25 NaHCO3, and 5 HEPES, pH 7.4. Solutions were bubbled with 95% O2/5% CO2 and maintained at 37°C. Hemichambers were connected to a DVC-1000 voltage clamp (World Precision Instruments Inc., Sarasota, FL, USA) via Ag/AgCl electrodes and 3 M KCl agar bridges.

dry eye = tested on: dry eye; set-up: method as in PMID 15502479; settings: United States; cited from earlier work
[4] = biological target: T1, CFTR chloride conductance at the rabbit ocular surface (Oryctolagus cuniculus, UniProt Q00554); assay: Ocular surface potential difference (PD) in vivo, CFTR
T1 construct: from tissue; host or cells: ocular surface (cornea, bulbar and palpebral conjunctiva) of living anesthetized rabbits
Experimental: as §1

[5] = biological target: T2, CFTR in rabbit forniceal and palpebral conjunctiva (Oryctolagus cuniculus, UniProt Q00554); assay: Short-circuit current in freshly isolated conjunctiva, CFTR; format: biochemical; settings: ex vivo rabbit conjunctiva
T2 construct: a sheet of forniceal and palpebral conjunctiva was dissected; from tissue; host or cells: freshly isolated rabbit forniceal and palpebral conjunctiva in an Ussing chamber
Experimental: as §2, with “Solutions were bubbled with 95% O2/5% CO2 and maintained at 37°C.” left out

T2 sequence (Q00554 whole entry): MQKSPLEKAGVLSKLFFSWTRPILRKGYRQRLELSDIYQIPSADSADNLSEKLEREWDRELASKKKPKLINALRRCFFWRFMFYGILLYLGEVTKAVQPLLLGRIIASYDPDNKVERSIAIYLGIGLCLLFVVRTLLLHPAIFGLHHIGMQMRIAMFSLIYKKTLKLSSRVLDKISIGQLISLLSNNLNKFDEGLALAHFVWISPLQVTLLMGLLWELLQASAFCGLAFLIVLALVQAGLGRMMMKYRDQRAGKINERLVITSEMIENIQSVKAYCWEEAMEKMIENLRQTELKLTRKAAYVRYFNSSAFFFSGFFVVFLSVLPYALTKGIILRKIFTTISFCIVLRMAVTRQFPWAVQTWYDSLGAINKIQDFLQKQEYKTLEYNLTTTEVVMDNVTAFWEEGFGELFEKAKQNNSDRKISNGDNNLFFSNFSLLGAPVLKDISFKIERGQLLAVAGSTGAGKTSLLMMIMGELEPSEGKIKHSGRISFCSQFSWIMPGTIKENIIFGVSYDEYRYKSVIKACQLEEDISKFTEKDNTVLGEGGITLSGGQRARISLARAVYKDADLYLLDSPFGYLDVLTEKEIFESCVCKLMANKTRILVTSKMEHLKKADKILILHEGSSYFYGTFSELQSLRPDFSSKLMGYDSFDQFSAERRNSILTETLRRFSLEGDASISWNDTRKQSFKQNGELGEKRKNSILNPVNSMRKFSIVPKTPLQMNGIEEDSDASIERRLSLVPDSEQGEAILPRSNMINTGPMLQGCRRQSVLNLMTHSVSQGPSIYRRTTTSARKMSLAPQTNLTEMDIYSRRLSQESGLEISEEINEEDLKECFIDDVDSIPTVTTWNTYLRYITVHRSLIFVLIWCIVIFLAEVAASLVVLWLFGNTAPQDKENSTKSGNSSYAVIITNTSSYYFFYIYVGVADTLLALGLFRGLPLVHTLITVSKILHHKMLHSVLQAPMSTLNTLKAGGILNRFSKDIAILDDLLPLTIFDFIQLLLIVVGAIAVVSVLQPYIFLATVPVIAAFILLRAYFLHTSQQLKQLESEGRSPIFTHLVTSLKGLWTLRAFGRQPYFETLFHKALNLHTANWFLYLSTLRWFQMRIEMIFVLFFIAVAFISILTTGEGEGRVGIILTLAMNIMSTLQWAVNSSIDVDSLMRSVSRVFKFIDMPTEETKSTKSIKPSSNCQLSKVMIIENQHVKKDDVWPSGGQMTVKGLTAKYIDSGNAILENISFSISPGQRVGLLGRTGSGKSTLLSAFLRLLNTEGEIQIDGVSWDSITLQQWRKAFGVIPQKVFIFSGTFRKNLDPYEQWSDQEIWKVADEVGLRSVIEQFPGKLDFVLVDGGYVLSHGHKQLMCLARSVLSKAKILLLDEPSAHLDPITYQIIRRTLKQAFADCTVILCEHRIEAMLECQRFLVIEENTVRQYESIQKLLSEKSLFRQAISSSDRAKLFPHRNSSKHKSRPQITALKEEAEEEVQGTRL
T1 sequence (Q00554 whole entry): as above

Molecule: CCN(CC)c1nc(Nc2ccccc2)nc(OC(C(F)(F)F)C(F)(F)F)n1 [CFTRact-K089]
Extent of CFTR activation (human wildtype CFTR): fully activated CFTR | EC50 (human wildtype CFTR; read-out: EC50 of CFTR activation): ~0.25 µM | Duration of increase in tear volume (tear volume in mice): 4 h | Effect on tear volume (tear volume in mice): doubled tear volume | Effect on pathology when administered after development of dry eye [1]: reversed pathology | Effect on corneal epithelial disruption ([1]; three times daily): prevented corneal epithelial disruption | Effect on tear volume ([1]; three times daily): normalized tear volume

Molecule: N=C(N)NC(=O)c1nc(Cl)c(N)nc1N [amiloride]
Depolarization of ocular surface PD (ENaC [2]): ~5 mV | Effect on short-circuit current (ENaC [3]): no amiloride effect | Effect on short-circuit current (ENaC [3]; listed as Amiloride): no effect

Molecule: O=c1ccn([C@@H]2O[C@H](COP(=O)(O)OP(=O)(O)OP(=O)(O)OP(=O)(O)OC[C@H]3O[C@@H](n4ccc(=O)[nH]c4=O)[C@H](O)[C@@H]3O)[C@@H](O)[C@H]2O)c(=O)[nH]1 [diquafosol]
Efficacy in phase III trials (dry eye): did not show efficacy

Further change in ocular surface PD on top of CFTRact-K267 ([4]; forskolin 20 μM after 10 μM CFTRact-K267): minimally further increased | CFTR activation (short-circuit current) ([5]; high concentration): Maximal CFTR activation | Change in short-circuit current ([5]; low concentration 25 nM): small increase in current
Molecule: C=C[C@@]1(C)CC(=O)[C@]2(O)[C@@]3(C)[C@@H](O)CCC(C)(C)[C@@H]3[C@H](O)[C@H](OC(C)=O)[C@@]2(C)O1 [forskolin]

Reversal of PD changes ([4]; CFTRinh-172 10 μM in final perfusion solution): largely reversed | Effect on increases in short-circuit current ([5]; CFTR inhibitor added last): inhibited
Molecule: CFTRinh-172
